Counter-ions that a name gives are not always drawn. Like-named read-outs stand apart in the source and are kept apart here.
What was measured:
Spodoptera litura = test: Efficacy test against Spodoptera litura (cabbage leaf disc); assay type: in vivo; settings: foliar, 144 h
Method: (§1) 5 parts by mass of a compound according to the present invention, 93.6 parts of dimethylformamide, and 1.4 parts of polyoxyethylene alkyl aryl ether were mixed and dissolved to obtain an emulsion (1) containing 5% by mass of the active ingredient.
(§2) The emulsion (1) was diluted with water such that the amount of the compound according to the present invention became 125 ppm by mass. A cabbage leaf disc was immersed in the diluted solution for 30 seconds. The cabbage leaf disc was air-dried and then put in a petri dish, followed by leaving five second-instar larvae of Spodoptera litura therein. The petri dish was placed in a thermostatic chamber at a temperature of 25° C. and a humidity of 60%. After six days had passed from leaving the larvae, life or death was assessed and the mortality was calculated. The test was repeated twice.

Helicoverpa armigera = test: Efficacy test against Helicoverpa armigera (cabbage leaf disc); assay type: in vivo; settings: foliar, 144 h
Mythimna separata = test: Efficacy test (2) against Mythimna separata (corn leaf disc); assay type: in vivo; settings: foliar, 144 h, 125 ppm by mass, corn leaf disc immersed 30 seconds, second-instar larvae, 25° C., humidity 60%, after six days
Method: as §1
as §2, with “corn” for “cabbage”, “was” for “was air-dried and then”, “and” for “followed by leaving”, “Mythimna separata were left” for “Spodoptera litura”

Plutella xylostella = test: Efficacy test against Plutella xylostella (cabbage leaf disc); assay type: in vivo; settings: foliar, 72 h, 125 ppm by mass, cabbage leaf disc immersed 30 seconds, second-instar larvae, 25° C., humidity 60%, after three days
[1] = 125 ppm by mass, cabbage leaf disc immersed 30 seconds, second-instar larvae, 25° C., humidity 60%, after six days, read-out: mortality

With `O=C([N-][n+]1ccccc1)c1ccc(C2CC2c2ccc(C(F)(F)F)cc2)cc1` (stereo not shown) [Compound C2-2] the mortality at 125 ppm (Spodoptera litura; [1]) was ≥ 80% and the mortality at 125 ppm (Helicoverpa armigera; [1]) was ≥ 80%.
With `O=C([N-][n+]1ccccc1)c1ccc(/C=C/C(F)(F)F)cc1` [Compound C1-25, 1-(4-((1E)-3,3,3-trifluoro-1-propen-1-yl)benzamide)pyridinium intramolecular salt] the mortality at 125 ppm (Spodoptera litura; [1]) was ≥ 80%.
For `O=C([N-][n+]1ccccc1)c1ccc(OC(F)(F)C(F)OC(F)(F)C(F)(F)C(F)(F)F)cc1` (stereo not shown) [Compound C1-11, 1-(4-(1,1,2-trifluoro-2-(perfluoropropoxy)ethoxy)benzamide) pyridinium intramolecular salt], the mortality at 125 ppm (Spodoptera litura) was ≥ 80% and the mortality at 125 ppm (Helicoverpa armigera) was ≥ 80%.
With `O=C([N-][n+]1ccccc1)c1ccc(C2CC2c2ccc(Cl)cc2)cc1` (stereo not shown) [Compound C2-4] the mortality at 125 ppm (Mythimna separata) was ≥ 80%.
Compound `O=C([N-][n+]1ccccc1)c1ccc(OC/C=C/Cl)cc1` [Compound C2-8] has a melting point of 161 to 162 °C.
In the case of `O=C([N-][n+]1ccccc1)c1ccc(OCC(F)(F)C(F)(F)C(F)(F)C(F)(F)F)cc1` [Compound C1-19, 1-(4-(2,2,3,3,4,4,5,5,5-nonafluoropentoxy)benzamide)pyridinium intramolecular salt], the mortality at 125 ppm (Spodoptera litura) was ≥ 80%.
For `O=C([N-][n+]1ccccc1)c1ccc(Oc2ccc(OC(F)(F)F)cc2)cc1` [Compound C1-8, pyridin-1-ium-1-yl(4-(4-(trifluoromethoxy)phenoxy)benzoyl)amide], the melting point was 111 to 113 °C.
`O=C([N-][n+]1ccccc1)c1ccc(SCC(F)(F)C(F)(F)C(F)(F)C(F)(F)C(F)(F)F)cc1` (as salt: salt) [Compound C1-18, 1-(4-((2,2,3,3,4,4,5,5,6,6,6-undecafluorohexyl)thio)benzamide) pyridinium intramolecular salt] gave a melting point of 132 to 134 °C.
`O=C([N-][n+]1ccccc1)c1ccc(NC(=O)c2ccc(C(F)(F)F)cc2)cc1` gave a melting point of 287 to 289 °C.
Compound `Cl.O=C(N[n+]1ccccc1)c1ccc(NCc2ccc(OC(F)(F)F)cc2)cc1.[Cl-]` has a melting point of 204 to 206 °C.
In the case of `O=C([N-][n+]1ccccc1)c1ccc(/C=C/c2ccc(OC(F)(F)F)cc2)cc1` [Compound C2-5], the mortality at 125 ppm (Spodoptera litura; [1]) was ≥ 80% and the mortality at 125 ppm (Plutella xylostella) was ≥ 80%.
With `O=C([N-][n+]1ccccc1)c1ccc(C(=O)c2ccc(OC(F)(F)F)cc2)cc1` [Compound C1-30, 1-(4-(4-(trifluoromethoxy)benzoyl)benzamide)pyridinium intramolecular salt] the mortality at 125 ppm (Plutella xylostella) was ≥ 80%.
In the case of `O=C([N-][n+]1ccccc1)c1ccc(/C=C/c2ccc(C(F)(F)F)cc2)cc1` [Compound C1-31, (E)-Pyridin-1-ium-1-yl(4-(4-(trifluoromethyl)styryl)benzoyl)amide], the mortality at 125 ppm (Mythimna separata) was ≥ 80%, the mortality at 125 ppm (Spodoptera litura; [1]) was ≥ 80% and the mortality at 125 ppm (Plutella xylostella) was ≥ 80%.
`CC(C)(C)OC(=O)N(Cc1ccc(OC(F)(F)F)cc1)c1ccc(C(=O)[N-][n+]2ccccc2)cc1` [Compound C2-9] gave a melting point of 183 to 184 °C.
Compound `O=C([N-][n+]1ccccc1)c1ccc(C(=O)Nc2ccc(OC(F)(F)F)cc2)cc1` [Compound C1-1, pyridin-1-ium-1-yl(4-((4-(trifluoromethoxy)phenyl)carbamoyl)benzoyl)amide] has a melting point of 281 to 283 °C.
For `O=C([N-][n+]1ccccc1)c1ccc(/C=N/OCC(F)(F)F)cc1` [Compound C1-5, (E)-pyridin-1-ium-1-yl(4-(((2,2,2-trifluoroethoxy)imino)methyl)benzoyl)amide], the melting point was 142 to 143 °C.
With `O=C([N-][n+]1ccccc1)c1ccc(Cc2ccc(C(F)(F)F)cc2)cc1` [Compound C1-7, pyridin-1-ium-1-yl(4-(4-(trifluoromethyl)benzyl)benzoyl)amide] the melting point was 180 to 183 °C.
In the case of `Cc1cccc[n+]1[N-]C(=O)c1ccc(C2CC2c2ccc(Cl)cc2)cc1` (stereo not shown) [Compound C2-3], the melting point was 140 to 144 °C.
`O=C([N-][n+]1ccccc1)c1ccc(NS(=O)(=O)c2ccc(C(F)(F)F)cc2)cc1` gave a melting point of 199 to 203 °C.
Work on `CC(C)(C)OC(=O)Nc1ccc(C(=O)[N-][n+]2ccccc2)cc1` [Compound C1-57, (4-((tert-butoxycarbonyl)amino)benzoyl)(pyridin-1-ium-1-yl)amide] yielded a melting point of 251 to 253 °C.
In the case of `O=C([N-][n+]1ccccc1)c1ccc(C#Cc2ccc(C(F)(F)F)cc2)cc1` [Compound C1-29, pyridin-1-ium-1-yl(4-((4-(trifluoromethyl)phenyl)ethynyl)benzoyl) amide], the mortality at 125 ppm (Mythimna separata) was ≥ 80%, the mortality at 125 ppm (Spodoptera litura; [1]) was ≥ 80% and the mortality at 125 ppm (Plutella xylostella) was ≥ 80%.
With `O=C([N-][n+]1ccccc1)c1ccc(C2CC2c2ccc(OC(F)(F)F)cc2)cc1` (stereo not shown) [Compound C2-1] the mortality at 125 ppm (Spodoptera litura; [1]) was ≥ 80% and the mortality at 125 ppm (Helicoverpa armigera; [1]) was ≥ 80%.
With `O=C([N-][n+]1ccccc1)c1ccc(OC/C=C\Cl)cc1` [Compound C2-7] the melting point was 101 to 104 °C.

Source: patent US20220267272A1, “PYRIDINIUM SALT AND PEST CONTROL AGENT” (Nippon Soda Co., Ltd., priority 2019, published 2022)
